Measurements: ChEMBL document CHEMBL4823282, “Novel Broad-Spectrum Antimicrobial Peptide Derived from Anoplin and Its Activity on Bacterial Pneumonia in Mice” (J Med Chem, 2021)
≈ marks a conversion by molar mass, not a printed value. Where a SMILES comes first, the peptide text is derived from it.

Tests used:
Bacillus subtilis = assay: Antibacterial activity against Bacillus subtilis ATCC 23857 incubated for 18 hrs by CLSI based broth dilution method; format: functional
[1] = system: Staphylococcus epidermidis; assay: Antibacterial activity against Staphylococcus epidermidis ATCC 12228 incubated for 18 hrs by CLSI based broth dilution method; format: functional
[2] = Cytotoxicity against human glomerular mesangial cells incubated for 12 hrs by MTT assay; format: cell-based; settings: Glomerular mesangial cell
Acinetobacter baumannii = assay: Antibacterial activity against Acinetobacter baumannii ATCC 19606 incubated for 18 hrs by CLSI based broth dilution method; format: functional; settings: ATCC 19606 = CIP 70.34 = JCM 6841
[3] = Selectivity ratio of MHC10 for BALB/C mouse erythrocytes to MIC for gram positive bacteria; format: toxicity
Pseudomonas aeruginosa [4] = assay: Synergistic antibacterial activity against Pseudomonas aeruginosa ATCC 27853 at 2 times MIC incubated for 18 to 24 hrs in presence of 2 times MIC of rifampicin by broth microdilution assay based checkerboard assay; format: functional; settings: time 18-24 hrs
Erythrocyte = assay: Hemolytic activity in BALB/C mouse erythrocytes incubated for 1 hr by absorbance method; format: ADME, cell-based
Bacteria [5] = assay: Antibacterial activity against Gram-positive bacteria incubated for 18 hrs by CLSI based broth dilution method; format: functional
Escherichia coli = assay: Antibacterial activity against Escherichia coli ATCC 25922 incubated for 18 hrs by CLSI based broth dilution method; format: functional
Enterococcus faecalis = assay: Antibacterial activity against Enterococcus faecalis ATCC 29212 incubated for 18 hrs by CLSI based broth dilution method; format: functional
Staphylococcus aureus = assay: Antibacterial activity against Staphylococcus aureus ATCC 25923 incubated for 18 hrs by CLSI based broth dilution method; format: functional
Fungi = assay: Antibacterial activity against fungi incubated for 18 hrs by CLSI based broth dilution method; format: functional
Bacteria [6] = assay: Antibacterial activity against bacteria incubated for 18 hrs by CLSI based broth dilution method; format: functional
[7] = Selectivity ratio of MHC10 for BALB/C mouse erythrocytes to MIC for gram-negative bacteria; format: toxicity
Klebsiella pneumoniae = assay: Antibacterial activity against Klebsiella pneumoniae ATCC 700603 incubated for 18 hrs by CLSI based broth dilution method; format: functional
[8] = Selectivity ratio of MHC10 for BALB/C mouse erythrocytes to MIC for bacteria; format: toxicity
Pseudomonas aeruginosa [9] = assay: Antibacterial activity against Pseudomonas aeruginosa ATCC 27853 incubated for 18 hrs by CLSI based broth dilution method; format: functional
[10] = Selectivity ratio of MHC10 for BALB/C mouse erythrocytes to MIC for fungi; format: toxicity
Pseudomonas aeruginosa [11] = assay: Synergistic antibacterial activity against Pseudomonas aeruginosa ATCC 27853 at 2 times MIC incubated for 18 to 24 hrs in presence of 2 times MIC of polymyxin B by broth microdilution assay based checkerboard assay; format: functional; settings: time 18-24 hrs
Bacteria [12] = assay: Antibacterial activity against Gram-negative bacteria incubated for 18 hrs by CLSI based broth dilution method; format: functional

SMILES	MIC (Bacillus subtilis)	MIC [1]	IC50 [2]	MIC (Acinetobacter baumannii)	selectivity ratio at 18 h [3]	FIC (Pseudomonas aeruginosa [4])	MHC10 (Erythrocyte)	MIC (Bacteria [5])	MIC (Escherichia coli)	MIC (Enterococcus faecalis)	MIC (Staphylococcus aureus)	MIC (Fungi)	MIC (Bacteria [6])	selectivity ratio [7]	MIC (Klebsiella pneumoniae)	selectivity ratio [8]	MIC (Pseudomonas aeruginosa [9])	selectivity ratio [10]	FIC (Pseudomonas aeruginosa [11])	MIC (Bacteria [12])
CC[C@H](C)[C@H](NC(=O)[C@H](CCCNC(=N)N)NC(=O)[C@H](CCCCN)NC(=O)[C@H](Cc1ccccc1)NC(=O)[C@H](Cc1ccccc1)NC(=O)CN)C(=O)N[C@@H](CCCNC(=N)N)C(=O)N[C@H](C(=O)N[C@@H](Cc1ccccc1)C(=O)N[C@@H](Cc1ccccc1)C(N)=O)[C@@H](C)O (H-GFFKRIRTFF-NH2)	16 µM (≈ 21.1 µg/mL)	64 µM (≈ 84.3 µg/mL)	88.9 µM	64 µM (≈ 84.3 µg/mL)	16	0.5625	>= 512 uM	32 µM (≈ 42.2 µg/mL)	32 µM (≈ 42.2 µg/mL)	64 µM (≈ 84.3 µg/mL)	16 µM (≈ 21.1 µg/mL)	26.9 µM (≈ 35.5 µg/mL)	26.9 µM (≈ 35.5 µg/mL)	22.6	32 µM (≈ 42.2 µg/mL)	19	32 µM (≈ 42.2 µg/mL)	19	0.5625	
CC[C@H](C)[C@H](NC(=O)[C@H](CCCNC(=N)N)NC(=O)[C@H](CCCNC(=N)N)NC(=O)[C@H](Cc1ccccc1)NC(=O)[C@H](Cc1ccccc1)NC(=O)CN)C(=O)N[C@@H](CCCCN)C(=O)N[C@H](C(=O)N[C@@H](Cc1ccccc1)C(=O)N[C@@H](Cc1ccccc1)C(N)=O)[C@@H](C)O (H-GFFRRIKTFF-NH2)	16 µM (≈ 21.1 µg/mL)	64 µM (≈ 84.3 µg/mL)	91.9 µM	64 µM (≈ 84.3 µg/mL)	16	0.3125	>= 512 uM	32 µM (≈ 42.2 µg/mL)	32 µM (≈ 42.2 µg/mL)	64 µM (≈ 84.3 µg/mL)	16 µM (≈ 21.1 µg/mL)	29.3 µM (≈ 38.7 µg/mL)	29.3 µM (≈ 38.7 µg/mL)	19	32 µM (≈ 42.2 µg/mL)	17.4	32 µM (≈ 42.2 µg/mL)	17.4	0.5	
CC[C@H](C)[C@H](NC(=O)[C@H](CCCNC(=N)N)NC(=O)[C@H](CCCNC(=N)N)NC(=O)[C@H](Cc1ccccc1)NC(=O)[C@H](Cc1ccccc1)NC(=O)CN)C(=O)N[C@@H](CCCNC(=N)N)C(=O)N[C@H](C(=O)N[C@@H](Cc1ccccc1)C(=O)N[C@@H](Cc1ccccc1)C(N)=O)[C@@H](C)O (H-GFFRRIRTFF-NH2)	8 µM (≈ 10.8 µg/mL)	32 µM (≈ 43.1 µg/mL)	52.6 µM	32 µM (≈ 43.1 µg/mL)	32	0.5625	>= 512 uM	16 µM (≈ 21.5 µg/mL)	32 µM (≈ 43.1 µg/mL)	32 µM (≈ 43.1 µg/mL)	8 µM (≈ 10.8 µg/mL)	17.4 µM (≈ 23.5 µg/mL)	17.4 µM (≈ 23.5 µg/mL)	26.9	32 µM (≈ 43.1 µg/mL)	29.3	32 µM (≈ 43.1 µg/mL)	29.3	0.5625	
CC(C)C[C@H](NC(=O)[C@H](CC(C)C)NC(=O)[C@@H](NC(=O)[C@H](CCCCN)NC(=O)[C@H](C)NC(=O)[C@H](CCCNC(=N)N)NC(=O)[C@H](CCCCN)NC(=O)[C@H](C)NC(=O)[C@H](CC(C)C)NC(=O)CN)[C@@H](C)O)C(N)=O (H-GLAKRAKTLL-NH2)	≥ 512 µM	≥ 512 µM	≥ 512 µM	≥ 512 µM	1		>= 512 uM	≥ 512 µM	≥ 512 µM	≥ 512 µM	≥ 512 µM	≥ 512 µM	≥ 512 µM	1	≥ 512 µM	1	≥ 512 µM	1		≥ 512 µM
CC(C)C[C@H](NC(=O)[C@H](CC(C)C)NC(=O)[C@@H](NC(=O)[C@H](CCCCN)NC(=O)[C@H](Cc1ccccc1)NC(=O)[C@H](CCCNC(=N)N)NC(=O)[C@H](CCCCN)NC(=O)[C@H](CC(C)C)NC(=O)[C@H](CC(C)C)NC(=O)CN)[C@@H](C)O)C(N)=O (H-GLLKRFKTLL-NH2)	32 µM (≈ 38 µg/mL)	16 µM (≈ 19 µg/mL)	≥ 512 µM	256 µM (≈ 304 µg/mL)	8		>= 512 uM	64 µM (≈ 76 µg/mL)	64 µM (≈ 76 µg/mL)	256 µM (≈ 304 µg/mL)	128 µM (≈ 152 µg/mL)	69.8 µM (≈ 82.9 µg/mL)	69.8 µM (≈ 82.9 µg/mL)	6.73	128 µM (≈ 152 µg/mL)	7.34	64 µM (≈ 76 µg/mL)	7.34		76.1 µM (≈ 90.4 µg/mL)
CC(C)C[C@H](NC(=O)CN)C(=O)N[C@@H](CC(C)C)C(=O)N[C@@H](CCCCN)C(=O)N[C@@H](CCCNC(=N)N)C(=O)N[C@@H](CC(C)C)C(=O)N[C@@H](CCCCN)C(=O)N[C@H](C(=O)N[C@@H](CC(C)C)C(=O)N[C@@H](C)C(N)=O)[C@@H](C)O (H-GLLKRLKTLA-NH2)	32 µM (≈ 35.6 µg/mL)	64 µM (≈ 71.1 µg/mL)	≥ 512 µM	≥ 512 µM	4		>= 512 uM	128 µM (≈ 142 µg/mL)	256 µM (≈ 285 µg/mL)	≥ 512 µM	256 µM (≈ 285 µg/mL)	166 µM (≈ 185 µg/mL)	166 µM (≈ 185 µg/mL)	2.38	256 µM (≈ 285 µg/mL)	3.08	256 µM (≈ 285 µg/mL)	3.08		215 µM (≈ 239 µg/mL)
C[C@@H](O)[C@H](NC(=O)[C@H](CCCCN)NC(=O)[C@H](Cc1c[nH]c2ccccc12)NC(=O)[C@H](CCCNC(=N)N)NC(=O)[C@H](CCCCN)NC(=O)[C@H](Cc1c[nH]c2ccccc12)NC(=O)[C@H](Cc1c[nH]c2ccccc12)NC(=O)CN)C(=O)N[C@@H](Cc1c[nH]c2ccccc12)C(=O)N[C@@H](Cc1c[nH]c2ccccc12)C(N)=O (H-GWWKRWKTWW-NH2)	4 µM (≈ 6.08 µg/mL)	4 µM (≈ 6.08 µg/mL)	49.5 µM	16 µM (≈ 24.3 µg/mL)	6.09		40.79 µM	6.7 µM (≈ 10.2 µg/mL)	16 µM (≈ 24.3 µg/mL)	16 µM (≈ 24.3 µg/mL)	8 µM (≈ 12.2 µg/mL)	9.51 µM (≈ 14.4 µg/mL)	9.51 µM (≈ 14.4 µg/mL)	3.02	16 µM (≈ 24.3 µg/mL)	4.29	16 µM (≈ 24.3 µg/mL)	4.29		13.5 µM (≈ 20.5 µg/mL)
N=C(N)NCCC[C@H](NC(=O)[C@H](CCCNC(=N)N)NC(=O)[C@H](Cc1c[nH]c2ccccc12)NC(=O)[C@H](CCCNC(=N)N)NC(=O)[C@H](CCCNC(=N)N)NC(=O)[C@H](Cc1c[nH]c2ccccc12)NC(=O)[C@H](Cc1c[nH]c2ccccc12)NC(=O)[C@@H](N)CCCNC(=N)N)C(=O)N[C@@H](Cc1c[nH]c2ccccc12)C(=O)N[C@@H](Cc1c[nH]c2ccccc12)C(N)=O (H-RWWRRWRRWW-NH2)	4 µM (≈ 6.92 µg/mL)	32 µM (≈ 55.3 µg/mL)	11.2 µM	128 µM (≈ 221 µg/mL)	3.23		43.67 µM	13.5 µM (≈ 23.3 µg/mL)	32 µM (≈ 55.3 µg/mL)	32 µM (≈ 55.3 µg/mL)	8 µM (≈ 13.8 µg/mL)	17.4 µM (≈ 30.2 µg/mL)	17.4 µM (≈ 30.2 µg/mL)	1.93	32 µM (≈ 55.3 µg/mL)	2.5	32 µM (≈ 55.3 µg/mL)	2.5		22.6 µM (≈ 39.1 µg/mL)
